US5652100A, “Stably transfected rodent fibroblast cell lines expressing human GABA-A -receptors” (priority 1992, dated 1997)
Like-named read-outs stand apart in the source and are kept apart here.

Biological target: T1, recombinant GABAA receptor (α1 β1 γ2L) expressed by population A cells (Bos taurus, UniProt P08219+P08220+P22300)
T1 construct: expressed in transfected cells; clone 'population A'
T1 sequence (P08219 28-456): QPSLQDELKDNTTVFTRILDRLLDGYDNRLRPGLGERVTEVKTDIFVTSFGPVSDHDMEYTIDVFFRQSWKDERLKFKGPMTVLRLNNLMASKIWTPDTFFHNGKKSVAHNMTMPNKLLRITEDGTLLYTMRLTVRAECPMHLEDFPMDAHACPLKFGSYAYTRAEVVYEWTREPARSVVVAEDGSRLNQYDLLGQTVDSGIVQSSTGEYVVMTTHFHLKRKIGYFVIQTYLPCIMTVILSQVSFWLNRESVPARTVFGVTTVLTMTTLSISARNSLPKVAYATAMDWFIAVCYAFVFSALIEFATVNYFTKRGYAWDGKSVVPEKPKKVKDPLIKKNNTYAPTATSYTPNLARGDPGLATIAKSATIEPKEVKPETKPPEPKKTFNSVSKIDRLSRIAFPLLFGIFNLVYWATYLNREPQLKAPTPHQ
T1 sequence (P08220 26-474): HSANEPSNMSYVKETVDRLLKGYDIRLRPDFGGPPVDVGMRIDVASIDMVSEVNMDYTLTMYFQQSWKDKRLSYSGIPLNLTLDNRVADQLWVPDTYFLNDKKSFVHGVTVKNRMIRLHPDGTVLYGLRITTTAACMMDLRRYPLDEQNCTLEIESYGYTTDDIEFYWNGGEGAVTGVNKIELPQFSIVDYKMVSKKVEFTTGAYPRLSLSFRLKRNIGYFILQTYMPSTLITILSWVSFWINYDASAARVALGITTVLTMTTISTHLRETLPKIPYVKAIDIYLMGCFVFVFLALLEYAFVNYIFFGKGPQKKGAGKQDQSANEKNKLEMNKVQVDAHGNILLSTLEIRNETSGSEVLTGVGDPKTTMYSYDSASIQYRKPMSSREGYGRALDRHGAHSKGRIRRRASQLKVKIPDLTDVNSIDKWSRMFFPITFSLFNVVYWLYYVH
T1 sequence (P22300 40-475): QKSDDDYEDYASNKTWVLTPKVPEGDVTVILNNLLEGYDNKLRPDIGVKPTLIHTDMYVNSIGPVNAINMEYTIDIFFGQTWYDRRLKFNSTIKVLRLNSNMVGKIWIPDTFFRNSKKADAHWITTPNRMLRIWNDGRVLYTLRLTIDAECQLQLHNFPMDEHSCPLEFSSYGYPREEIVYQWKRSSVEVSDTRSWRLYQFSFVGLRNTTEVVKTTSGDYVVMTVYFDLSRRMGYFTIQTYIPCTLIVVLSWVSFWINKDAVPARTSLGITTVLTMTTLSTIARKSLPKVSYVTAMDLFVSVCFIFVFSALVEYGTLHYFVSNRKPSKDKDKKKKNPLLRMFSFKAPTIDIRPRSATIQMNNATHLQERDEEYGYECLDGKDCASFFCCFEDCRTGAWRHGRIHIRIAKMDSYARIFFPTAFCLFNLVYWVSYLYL
Format: cell-based, bovine
From the text: The nature of the GABAA receptor expressed by population A cells has been extensively characterised by electrophysiological techniques, using whole cell patch clamp.

[1] = whole cell patch clamp, qualitative

Molecule	potentiation of the response to GABA [1]	antagonism of the response to GABA [1]	further results
Cc1nnc2ccc(-c3cccc(C(F)(F)F)c3)nn12 [CL218872]	–	–	potentiation of the response to GABA: potentiated
NCCCC(=O)O [GABA, Gamma-amino butyric acid]	–	–	Hill coefficient of GABA concentration response curves (dexamethasone-induced cells, whole cell patch clamp): 1.9
CC(=O)[C@H]1CC[C@H]2[C@@H]3CC[C@H]4C[C@H](O)CC[C@]4(C)[C@H]3C(=O)C[C@]12C [alphaxalone]	potentiated	–	–
CN1CCc2cc3c(cc2[C@H]1[C@@H]1OC(=O)c2c1ccc1c2OCO1)OCO3 [bicuculline]	–	antagonised	–
CCCC(C)C1(CC)C(=O)NC(=O)NC1=O (stereo not drawn) [pentobarbitone]	potentiated	–	–
picrotoxin	–	antagonised	–
